Source: US8637263B1, “Assay for determination of compounds having anti-emetic activity” (Epiomed Therapeutics, Inc., priority 2010, dated 2014)
Structures can show the parent of a compound that is named as a salt.

Test system: xylazine-induced emesis
Experiment: Xylazine-induced emesis in cats, with defensive behavior/anxiety scoring
Format: in vivo
Settings: for anxiety 15 minutes after treatment / protection against xylazine-induced emesis / cats that vomited: FIG. 1, female cats; for protection against xylazine-induced emesis / cats that vomited: observed 30 min; for Defensive Behavior Scale / Mean Defensive Score / % Protection (vomiting) / Mean Latency (to retch/vomit): cats; for % Protection (vomiting) / Mean Latency (to retch/vomit): xylazine 0.66 mg/kg; for anxiety-inducing effect in test subjects / effectiveness in preventing chemically-induced emesis: administered alone, summary statement
Protocol: […], 0.66 mg/kg xylazine was administered subcutaneously, and the test subjects where then observed for 30 minutes.
Cats not susceptible to motion sickness were assigned to the xylazine testing group. Xylazine stimulates receptors on a pathway different from that used by motion sickness and thus served as a test of the generality of anti-emetic effects observed with motion testing.
Prior to the evaluation of anti-emetic compounds, the production of an emetic response by xylazine in felines was confirmed in the laboratory. Cats were injected subcutaneously with either a freshly prepared solution of 0.66 mg/kg of xylazine in 0.9% sodium chloride or 0.9% sodium chloride vehicle, both adjusted to an injection volume of 0.1 ml/kg.
One week following the confirmation of an emetic response by the cats, subject cats were given either vehicle or test compound/composition in 0.9% sodium chloride or vehicle (injection volume of 0.1 ml/kg) subcutaneously, 20 minutes before administration of xylazine. […] Animals were scored using the vomit scale developed by Suri et al., 1979. Additional experiments were separated by at least a 1 week washout period.
A. Vomit Scale Scoring: • 1. Sal I (licking—parasympathetic): 1 pt • 2. Sal II (drool, thin/frothy—early sympathetic): 2 pts • 3. Sal III (stringy saliva, dangles—sympathetic): 4 pts • 4. Defection: 8 pts • 5. Urination: 8 pts • 6. Wretch/vomiting: 16 pts
B. Defensive Behavior Scale: • 1. No defensiveness: normal behavior; • 2. Slight defensiveness: retreating to the rear of the cage when approached and/or growling when being carried; • 3. […] Strong defensiveness: vigorous clawing and biting to prevent being handled. IV. Statistical Methods
Dose response curves were analyzed by Cochran's Q-test to establish significant effects. Paired comparisons were made using McNemar's test. Tests for line parallelism, relative potency and ED50 were based on least squares regression in a program for pharmacological statistics. The data from the nonparametric rating scale was analyzed using Friedman's analysis of variance model (ANOVA).

[1] = 0.08 mg/kg SC 15 min before xylazine 0.66 mg/kg SC

CCCN(CCC)C1CCc2cccc(O)c2C1 (racemic) [R/S-(+/−)-DPAT, (±)-8-Hydroxy-2-(dipropylamino)tetralin]
anxiety 15 minutes after treatment (0.16 mg/kg SC): moderate level of anxiety
protection against xylazine-induced emesis (0.16 mg/kg SC 15 min before xylazine 0.66 mg/kg SC): 100%
Defensive Behavior Scale (0.16 mg/kg SC): Moderate
Mean Defensive Score (0.16 mg/kg SC): 2.0
% Protection (vomiting) (0.16 mg/kg SC): 100.00%

CCCN(CCC)[C@H]1CCc2cccc(O)c2C1 [S-(−)-DPAT, S(−)-8-Hydroxy-2-(dipropylamino)tetralin hydrobromide]
anxiety 15 minutes after treatment (0.08 mg/kg SC): did not show any anxiety
cats that vomited [1]: 40%
protection against xylazine-induced emesis [1]: 60%
anxiety-inducing effect in test subjects: no anxiety or only slight anxiety
effectiveness in preventing chemically-induced emesis: not fully effective
Defensive Behavior Scale (0.08 mg/kg SC): None
% Protection (vomiting) (0.08 mg/kg SC): 75.00%
Mean Latency (to retch/vomit) (0.08 mg/kg SC): 1.58 min
Defensive Behavior Scale (0.16 mg/kg SC): None
% Protection (vomiting) (0.16 mg/kg SC): 85.71%
Mean Latency (to retch/vomit) (0.16 mg/kg SC): 0.82 min
Defensive Behavior Scale (0.32 mg/kg SC): Slight
Mean Defensive Score (0.32 mg/kg SC): 1.0
% Protection (vomiting) (0.32 mg/kg SC): 80.00%
Mean Latency (to retch/vomit) (0.32 mg/kg SC): 1.00 min

CCCN(CCC)[C@@H]1CCc2cccc(O)c2C1 [R-(+)-DPAT, R(+)-8-Hydroxy-2-(dipropylamino)tetralin hydrobromide]
anxiety 15 minutes after treatment (0.08 mg/kg SC): extreme level of anxiety
cats that vomited [1]: none of the cats vomited
anxiety-inducing effect in test subjects: moderate to strong
effectiveness in preventing chemically-induced emesis: 100%
Defensive Behavior Scale (0.02 mg/kg SC): Moderate
Mean Defensive Score (0.02 mg/kg SC): 2.0
% Protection (vomiting) (0.02 mg/kg SC): 100.00%
Defensive Behavior Scale (0.04 mg/kg SC): Strong
Mean Defensive Score (0.04 mg/kg SC): 3.0
% Protection (vomiting) (0.04 mg/kg SC): 100.00%
Defensive Behavior Scale (0.08 mg/kg SC): Strong
Mean Defensive Score (0.08 mg/kg SC): 3.0
% Protection (vomiting) (0.08 mg/kg SC): 100.00%
